According to the supplement of paper PMC10307832:

How the values were obtained:
Assay in all cases: relative viability (nuclei count vs DMSO), 5 days (fraction); higher = more cells survive
[1] = compound: C[C@@]1(C(=O)Nc2ccc(F)nc2)CCCN1c1nc(Nc2cc(C3CC3)n[nH]2)c2cccn2n1 + CC1(C)CCC(c2ccc(Cl)cc2)=C(CN2CCN(c3ccc(C(=O)NS(=O)(=O)c4ccc(N[C@H](CCN5CCOCC5)CSc5ccccc5)c(S(=O)(=O)C(F)(F)F)c4)cc3)CC2)C1 [Navitoclax] (partner 0.5 µM)
How it was run: (§1)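 Relative viability was taken as the ratio of nuclei in treated wells to nuclei in vehicle wells. Lung cancer cell lines in 1536-well plates received compounds by pin tool one day after seeding, either one drug alone or a fixed anchor-drug dose plus five library-drug doses (not always all listed) in √10 steps. Nuclei were counted on 4× images after 5 days of treatment, and values are medians of duplicate plates.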

Motesanib + Phenformin = compound: CC1(C)CNc2cc(NC(=O)c3cccnc3NCc3ccncc3)ccc21 [Motesanib] + N=C(N)NC(=N)NCCc1ccccc1 [Phenformin] (partner 250 µM)
How it was run: as §1

Motesanib + Trametinib = compound: CC1(C)CNc2cc(NC(=O)c3cccnc3NCc3ccncc3)ccc21 [Motesanib] + CC(=O)Nc1cccc(-n2c(=O)n(C3CC3)c(=O)c3c(Nc4ccc(I)cc4F)n(C)c(=O)c(C)c32)c1 [Trametinib] (partner 0.02 µM)
How it was run: as §1

Motesanib + Decitabine = compound: CC1(C)CNc2cc(NC(=O)c3cccnc3NCc3ccncc3)ccc21 [Motesanib] + Nc1ncn([C@H]2C[C@H](O)[C@@H](CO)O2)c(=O)n1 [Decitabine] (partner 2 µM)
How it was run: as §1

Cell Line	relative viability ([1]; first compound 0.04 µM)	relative viability ([1]; first compound 0.1265 µM)	relative viability ([1]; first compound 0.4 µM)	relative viability ([1]; first compound 1.265 µM)	relative viability (Motesanib + Phenformin; first compound 0.01 µM)	relative viability (Motesanib + Phenformin; first compound 0.1 µM)	relative viability (Motesanib + Phenformin; first compound 0.3162 µM)	relative viability (Motesanib + Phenformin; first compound 1 µM)	relative viability (Motesanib + Trametinib; first compound 0.01 µM)	relative viability (Motesanib + Trametinib; first compound 0.03162 µM)	relative viability (Motesanib + Trametinib; first compound 0.1 µM)	relative viability (Motesanib + Trametinib; first compound 0.3162 µM)	relative viability (Motesanib + Trametinib; first compound 1 µM)	relative viability (Motesanib + Decitabine; first compound 0.01 µM)	relative viability (Motesanib + Decitabine; first compound 0.03162 µM)	relative viability (Motesanib + Decitabine; first compound 0.1 µM)	relative viability (Motesanib + Decitabine; first compound 0.3162 µM)	relative viability (Motesanib + Decitabine; first compound 1 µM)	relative viability (Motesanib + Phenformin; first compound 0.03162 µM)
NCI-H1792	0.422	0.36	0.464	0.393	0.202	0.367	0.258	0.243	0.511	0.37	0.43	0.528	0.442	0.48	0.642	0.594	0.657	0.878	–
ChaGo-K-1	0.917	0.616	1.06	0.673	0.473	0.509	0.499	0.528	0.894	0.889	0.91	0.942	0.95	0.506	0.556	0.544	0.661	0.607	0.436
COR-L23	1.02	1.06	0.821	0.681	0.468	0.494	0.531	0.43	0.352	0.654	0.602	0.708	0.74	0.477	0.456	0.491	0.468	0.519	0.456
COR-L 105	0.788	0.477	0.65	0.607	0.485	0.538	0.573	0.463	0.451	0.383	0.41	0.422	0.448	0.643	0.683	0.72	0.739	0.705	0.499
LK-2	–	0.843	0.368	0.494	0.372	–	0.538	0.549	0.662	0.71	0.696	0.87	0.811	0.251	0.398	0.28	0.285	0.374	0.39
201T	1.15	1.09	1.11	1.16	0.377	0.485	0.48	0.427	0.743	0.71	0.736	0.722	0.742	0.84	0.864	0.925	0.939	0.93	0.44
HCC-44	0.804	0.884	0.68	0.903	0.129	0.252	0.309	0.209	1.01	1.06	1.05	1.12	1.19	0.972	0.952	0.932	1.07	0.932	0.174
